2 compounds from ChEMBL document CHEMBL5360565, “Discovery of novel arylpiperazine-based DA/5-HT modulators as potential antipsychotic agents - Design, synthesis, structural studies and pharmacological profiling” (Eur J Med Chem, 2023) can be followed below.

Each structure is given as a SMILES string.

The term Papp denotes a coefficient for how fast a substance crosses the barrier. A higher Papp goes with ready permeation.

This data set in a line: in vitro. To be noted: PAMPA, pH 7.4. On the technique in general: In PAMPA a lipid-coated filter parts donor from acceptor wells.

The compound `Cn1c(=O)c2c(ncn2C)n(C)c1=O` [CAFFEINE] came in with a Papp at 5 h of 9.13 ×10⁻⁶ cm/s.

On to `CCN1CCCC1CNC(=O)c1cc(S(N)(=O)=O)ccc1OC` (configuration not stated) [SULPIRIDE], for which the Papp at 5 h came out at 0.006 ×10⁻⁶ cm/s.
